In PubChem BioAssay (NCI):
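Growth conditions: 96-well plates. Treatment: test compound, 48 hours, 5 concentrations. Analysis: linear interpolation between bracketing concentrations; unreached endpoints set to highest concentration. GI50 is the concentration that inhibits growth by half. TGI is the concentration that stops growth completely.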

What was measured:
Test in all cases: inhibition of tumour cell growth, NCI panel, 48 h
LOX IMVI melanoma = system: LOX IMVI melanoma
A498 renal = system: A498 renal
MCF7 breast = system: MCF7 breast
OVCAR-5 ovarian = system: OVCAR-5 ovarian
MDA-MB-468 breast = system: MDA-MB-468 breast
MALME-3M melanoma = system: MALME-3M melanoma
HCT-15 colon = system: HCT-15 colon
DU-145 prostate = system: DU-145 prostate
HOP-92 NSCLC = system: HOP-92 NSCLC
EKVX NSCLC = system: EKVX NSCLC
NCI/ADR-RES ovarian = system: NCI/ADR-RES ovarian
SW-620 colon = system: SW-620 colon
U251 CNS = system: U251 CNS
OVCAR-3 ovarian = system: OVCAR-3 ovarian
HCT-116 colon = system: HCT-116 colon
ACHN renal = system: ACHN renal
COLO 205 colon = system: COLO 205 colon
SF-295 CNS = system: SF-295 CNS
SK-MEL-28 melanoma = system: SK-MEL-28 melanoma
BT-549 breast = system: BT-549 breast
NCI-H522 lung = system: NCI-H522 lung
OVCAR-8 ovarian = system: OVCAR-8 ovarian
HT29 colon = system: HT29 colon
SF-539 CNS = system: SF-539 CNS
SR leukemia = system: SR leukemia
M14 melanoma = system: M14 melanoma
TK-10 renal = system: TK-10 renal
SNB-75 CNS = system: SNB-75 CNS
UACC-62 melanoma = system: UACC-62 melanoma
MOLT-4 leukemia = system: MOLT-4 leukemia
KM12 colon = system: KM12 colon
SNB-19 CNS = system: SNB-19 CNS
UO-31 renal = system: UO-31 renal
NCI-H23 lung = system: NCI-H23 lung
NCI-H460 lung = system: NCI-H460 lung
CAKI-1 renal = system: CAKI-1 renal
MDA-MB-435 = system: MDA-MB-435
SK-MEL-5 melanoma = system: SK-MEL-5 melanoma
RXF 393 renal = system: RXF 393 renal
PC-3 prostate = system: PC-3 prostate
SK-MEL-2 melanoma = system: SK-MEL-2 melanoma
RPMI-8226 leukemia = system: RPMI-8226 leukemia
786-0 renal = system: 786-0 renal
HL-60(TB) leukemia = system: HL-60(TB) leukemia
HCC-2998 colon = system: HCC-2998 colon
UACC-257 melanoma = system: UACC-257 melanoma
SN12C renal = system: SN12C renal
NCI-H226 lung = system: NCI-H226 lung
SF-268 CNS = system: SF-268 CNS
MDA-MB-231 breast = system: MDA-MB-231 breast
SK-OV-3 ovarian = system: SK-OV-3 ovarian
IGROV1 ovarian = system: IGROV1 ovarian
T-47D breast = system: T-47D breast
HS 578T breast = system: HS 578T breast
A549 NSCLC = system: A549 NSCLC

O/N=C(\CSc1nnc(-c2c[nH]c3ccccc23)n1-c1ccccc1)c1ccc(Cl)cc1
GI50 (LOX IMVI melanoma): 1.72 µM
TGI (LOX IMVI melanoma): 3.12 µM
GI50 (A498 renal): 15.4 µM
TGI (A498 renal): 65.8 µM
GI50 (MCF7 breast): 3.63 µM
TGI (MCF7 breast): 21.6 µM
GI50 (OVCAR-5 ovarian): 3.37 µM
TGI (OVCAR-5 ovarian): 11.4 µM
GI50 (MDA-MB-468 breast): 1.72 µM
TGI (MDA-MB-468 breast): 3.47 µM
GI50 (MALME-3M melanoma): 4.99 µM
TGI (MALME-3M melanoma): 27.5 µM
GI50 (HCT-15 colon): 3.2 µM
TGI (HCT-15 colon): 13.6 µM
GI50 (DU-145 prostate): 2.59 µM
TGI (DU-145 prostate): 6.32 µM
GI50 (HOP-92 NSCLC): 3.84 µM
TGI (HOP-92 NSCLC): 37.6 µM
GI50 (EKVX NSCLC): 3.21 µM
TGI (EKVX NSCLC): 19.2 µM
GI50 (NCI/ADR-RES ovarian): 2.95 µM
TGI (NCI/ADR-RES ovarian): 9.5 µM
GI50 (SW-620 colon): 3.08 µM
TGI (SW-620 colon): 16.1 µM
GI50 (U251 CNS): 4.73 µM
TGI (U251 CNS): 81.2 µM
GI50 (OVCAR-3 ovarian): 4.58 µM
TGI (OVCAR-3 ovarian): 32.4 µM
GI50 (HCT-116 colon): 2.92 µM
TGI (HCT-116 colon): 13.7 µM
GI50 (ACHN renal): 3.69 µM
TGI (ACHN renal): 14.5 µM
GI50 (COLO 205 colon): 4.47 µM
TGI (COLO 205 colon): 25.9 µM
GI50 (SF-295 CNS): 3.11 µM
TGI (SF-295 CNS): 13.4 µM
GI50 (SK-MEL-28 melanoma): 4.41 µM
TGI (SK-MEL-28 melanoma): > 100 µM
GI50 (BT-549 breast): 3.71 µM
TGI (BT-549 breast): 11.1 µM
GI50 (NCI-H522 lung): 3.11 µM
TGI (NCI-H522 lung): 12.5 µM
GI50 (OVCAR-8 ovarian): 3.72 µM
TGI (OVCAR-8 ovarian): 15.8 µM
GI50 (HT29 colon): 3.04 µM
TGI (HT29 colon): 11.8 µM
GI50 (SF-539 CNS): 10.2 µM
TGI (SF-539 CNS): 29.5 µM
GI50 (SR leukemia): 4.74 µM
TGI (SR leukemia): > 100 µM
GI50 (M14 melanoma): 3.16 µM
TGI (M14 melanoma): 14.1 µM
GI50 (TK-10 renal): 3.7 µM
TGI (TK-10 renal): 17.7 µM
GI50 (SNB-75 CNS): 1.68 µM
TGI (SNB-75 CNS): 5.8 µM
GI50 (UACC-62 melanoma): 2.62 µM
TGI (UACC-62 melanoma): 10.1 µM
GI50 (MOLT-4 leukemia): 2.16 µM
TGI (MOLT-4 leukemia): 5.69 µM
GI50 (KM12 colon): 4.72 µM
TGI (KM12 colon): > 100 µM
GI50 (SNB-19 CNS): 6.89 µM
TGI (SNB-19 CNS): 45.2 µM
GI50 (UO-31 renal): 2.88 µM
TGI (UO-31 renal): 15.7 µM
GI50 (NCI-H23 lung): 6.51 µM
TGI (NCI-H23 lung): > 100 µM
GI50 (NCI-H460 lung): 3.34 µM
TGI (NCI-H460 lung): 15.7 µM
GI50 (CAKI-1 renal): 2.93 µM
TGI (CAKI-1 renal): 12.4 µM
GI50 (MDA-MB-435): 1.74 µM
TGI (MDA-MB-435): 3.41 µM
GI50 (SK-MEL-5 melanoma): 3.87 µM
TGI (SK-MEL-5 melanoma): 19.5 µM
GI50 (RXF 393 renal): 2.22 µM
TGI (RXF 393 renal): 6.29 µM
GI50 (PC-3 prostate): 2.31 µM
TGI (PC-3 prostate): 7.29 µM
GI50 (SK-MEL-2 melanoma): 3.64 µM
TGI (SK-MEL-2 melanoma): 17.1 µM
GI50 (RPMI-8226 leukemia): 2.38 µM
TGI (RPMI-8226 leukemia): 7.29 µM
GI50 (786-0 renal): 7.29 µM
TGI (786-0 renal): > 100 µM
GI50 (HL-60(TB) leukemia): 2.17 µM
TGI (HL-60(TB) leukemia): 6.34 µM
GI50 (HCC-2998 colon): 4.74 µM
TGI (HCC-2998 colon): 22.5 µM
GI50 (UACC-257 melanoma): 4.67 µM
TGI (UACC-257 melanoma): 87.8 µM
GI50 (SN12C renal): 3.79 µM
TGI (SN12C renal): 16.3 µM
GI50 (NCI-H226 lung): 3.98 µM
TGI (NCI-H226 lung): 17.6 µM
GI50 (SF-268 CNS): 2.11 µM
TGI (SF-268 CNS): 5.08 µM
GI50 (MDA-MB-231 breast): 1.87 µM
TGI (MDA-MB-231 breast): 3.66 µM
GI50 (SK-OV-3 ovarian): 3.38 µM
TGI (SK-OV-3 ovarian): 12.4 µM
GI50 (IGROV1 ovarian): 5.35 µM
TGI (IGROV1 ovarian): 19.8 µM
GI50 (T-47D breast): 3.6 µM
TGI (T-47D breast): 31.4 µM
GI50 (HS 578T breast): 3.09 µM
TGI (HS 578T breast): 16.6 µM
GI50 (A549 NSCLC): 3.35 µM
TGI (A549 NSCLC): 16.8 µM
